Marks after values point to notes of the source that are not given here. Strand notation (5' to 3'): a small letter for the sugar, then the base; units joined by * are phosphorothioate-linked, units joined directly phosphodiester-linked; [ ] holds rarer units or linkages, { } end groups; capitals alone tell only the bases. k = constrained ethyl (cEt); [5mC] = 5-methylcytosine; d = 2'-deoxy (DNA)
What follows are substances tested on Yap1 mRNA (assay: Antisense inhibition of human Yap1 in A-431 cells by cEt gapmers, single dose (Example 2, RTS4814)). Conditions: A-431 cells, 5,000 cells per well, free uptake, 2,000 nM modified oligonucleotide, approx. 48 hours, RTS4814, normalized to RIBOGREEN; Table 4; asterisk (*) = targets amplicon region of primer probe set.
Assay type: cell-based
Procedure, shortened: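 Read-out is Yap1 mRNA as percent of untreated cells, by real-time RT-PCR (probe set RTS4814) normalized to total RNA via RIBOGREEN. Cells were A-431 dosed with 2,000 nM gapmer without transfection for approximately 48 hours.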
In the case of “716508 (antisense k[5mC]*kT*kA*dG*dG*dT*dA*dG*dA*dA*dT*dT*dT*k[5mC]*kA*kT) [Compound 716508]”, the “YAP1 (% UTC)” value is reported as 67 % UTC. With “716463 (kG*kA*k[5mC]*dT*dG*d[5mC]*d[5mC]*d[5mC]*d[5mC]*dA*dA*d[5mC]*d[5mC]*kA*kG*kA; antisense) [Compound 716463]” the “YAP1 (% UTC)” value was 64 % UTC. In the case of “716466 (kG*kT*kG*dG*dA*dG*d[5mC]*dA*d[5mC]*dT*d[5mC]*d[5mC]*d[5mC]*k[5mC]*kT*kA; antisense) [Compound 716466]”, the “YAP1 (% UTC)” value is reported as 58 % UTC. “716370 (k[5mC]*kA*kG*dT*dG*d[5mC]*d[5mC]*dT*dG*d[5mC]*dA*dT*d[5mC]*kA*kG*kT; antisense) [Compound 716370]” was tested, and the “YAP1 (% UTC)” value was 25 % UTC. “716502 (k[5mC]*kA*k[5mC]*dA*dG*dT*dG*dA*dT*dT*dG*d[5mC]*dA*kT*kT*kT; antisense) [Compound 716502]” was tested, and the “YAP1 (% UTC)” value was 11 % UTC.

Same assay, conditions: Table 5; A-431 cells, 5,000 cells per well, free uptake, 2,000 nM modified oligonucleotide, approx. 48 hours; RTS4814; normalized to RIBOGREEN; Yap1 mRNA relative to untreated control cells
“716503 (kT*kT*kA*dT*dT*dA*dT*dG*dA*dG*dT*dG*dA*kT*k[5mC]*kA; antisense) [Compound 716503]” was tested, and the “YAP1 (% UTC)” value was 33 % UTC. With “716368 (kG*kT*k[5mC]*dG*dG*dG*d[5mC]*dA*dG*d[5mC]*dT*dT*d[5mC]*k[5mC]*kG*kG; antisense) [Compound 716368]” the “YAP1 (% UTC)” value was 86 % UTC.

Same assay, conditions: Table 6; A-431 cells, 5,000 cells per well, free uptake, 2,000 nM modified oligonucleotide, approx. 48 hours; RTS4814; normalized to RIBOGREEN; Yap1 mRNA relative to untreated control cells
“716411 (kT*k[5mC]*kT*dG*d[5mC]*dT*dG*dT*dG*dA*dG*dG*dG*k[5mC]*kA*kG; antisense) [Compound 716411]” was tested, and the “YAP1 (% UTC)” value was 102 % UTC.

Same assay, conditions: Table 18; A-431 cells, 5,000 cells per well, free uptake, 2,000 nM modified oligonucleotide, approx. 48 hours; RTS4814; normalized to RIBOGREEN; Yap1 mRNA as percent of untreated control
In the case of “1075204 (antisense kG*kT*kT*dA*dA*dA*d[5mC]*dA*d[5mC]*dA*dT*d[5mC]*dT*k[5mC]*kA*kG) [Compound 1075204]”, the “YAP1 (% UTC)” value is reported as 43 % UTC. For “1075108 (antisense k[5mC]*kT*kA*dA*dA*dA*dA*d[5mC]*dA*dT*dT*dG*dT*kG*kG*k[5mC]) [Compound 1075108]”, the “YAP1 (% UTC)” value was 67 % UTC. For “1076196 (kT*kA*kT*d[5mC]*dA*dA*dG*dG*dG*dA*dA*dT*dT*kA*kT*kT; antisense) [Compound 1076196]”, the “YAP1 (% UTC)” value was 113 % UTC.

Same assay, conditions: Table 19; A-431 cells, 5,000 cells per well, free uptake, 2,000 nM modified oligonucleotide, approx. 48 hours; RTS4814; normalized to RIBOGREEN; Yap1 mRNA as percent of untreated control
With “1076101 (kA*kA*kA*dT*dA*dA*dG*dG*dG*dA*d[5mC]*dT*dA*k[5mC]*kT*kT; antisense) [Compound 1076101]” the “YAP1 (% UTC)” value was 71 % UTC. “1076325 (k[5mC]*kT*kA*dA*dT*dA*dA*dT*dG*dG*dA*dA*dG*kA*kG*kT; antisense) [Compound 1076325]” was tested, and the “YAP1 (% UTC)” value was 16 % UTC.

Same assay, conditions: Table 20; Yap1 mRNA, percent of untreated control; 3-10-3 cEt gapmers targeting SEQ ID NO.: 1 and 2
In the case of “1074854 (antisense kA*k[5mC]*kA*dA*dT*dT*dG*dT*dT*dA*dT*dG*dA*kT*kA*kG) [Compound 1074854]”, the “YAP1 (% UTC)” value is reported as 23 % UTC. For “1076230 (kG*kA*kA*dT*dT*dA*dA*d[5mC]*d[5mC]*dT*d[5mC]*dA*dG*kT*kG*kA; antisense) [Compound 1076230]”, the “YAP1 (% UTC)” value was 50 % UTC. “1075302 (k[5mC]*k[5mC]*kT*dT*dA*dA*dA*dG*d[5mC]*dT*dT*d[5mC]*d[5mC]*kA*k[5mC]*k[5mC]; antisense) [Compound 1075302]” was tested, and the “YAP1 (% UTC)” value was 75 % UTC. “1075878 (kG*kA*kT*dT*dA*dT*d[5mC]*dA*dA*dG*dT*dA*dG*kT*kT*kT; antisense) [Compound 1075878]” was tested, and the “YAP1 (% UTC)” value was 35 % UTC. In the case of “1075206 (antisense kT*kA*kT*dT*dA*dA*dA*dT*dG*dA*dG*d[5mC]*dA*k[5mC]*k[5mC]*kA) [Compound 1075206]”, the “YAP1 (% UTC)” value is reported as 36 % UTC.

Same assay, conditions: Table 21; Yap1 mRNA, percent of untreated control; 3-10-3 cEt gapmers targeting SEQ ID NO.: 1 and 2
“1076199 (kT*kA*kT*d[5mC]*dA*dA*dA*dA*dG*dT*d[5mC]*d[5mC]*dA*kT*k[5mC]*k[5mC]; antisense) [Compound 1076199]” was tested, and the “YAP1 (% UTC)” value was 37 % UTC.

Same assay, conditions: Table 22; Yap1 mRNA as percent of untreated control; 3-10-3 cEt gapmers; single dose
In the case of “1075848 (kG*kA*kT*dT*dA*d[5mC]*dA*dA*dT*dG*dG*dG*d[5mC]*kA*kG*kT; antisense) [Compound 1075848]”, the “YAP1 (% UTC)” value is reported as 9 % UTC. For “1074504 (kT*k[5mC]*kG*dA*dG*dA*dT*dT*dT*dA*dA*dA*dT*kA*kA*kG; antisense) [Compound 1074504]”, the “YAP1 (% UTC)” value was 76 % UTC. For “1076264 (kA*k[5mC]*k[5mC]*d[5mC]*dA*dA*dT*dA*dA*d[5mC]*d[5mC]*dA*dA*kG*kT*kG; antisense) [Compound 1076264]”, the “YAP1 (% UTC)” value was 40 % UTC. With “1074440 (kG*k[5mC]*kT*dG*dT*dG*dA*d[5mC]*dA*dT*dG*dA*dA*kG*k[5mC]*kA; antisense) [Compound 1074440]” the “YAP1 (% UTC)” value was 38* % UTC.

Same assay, conditions: Table 23; Yap1 mRNA as percent of untreated control; 3-10-3 cEt gapmers; single dose
“1074985 (antisense kA*kA*kT*d[5mC]*dA*d[5mC]*d[5mC]*dT*dT*dT*dT*dA*dT*kT*kG*k[5mC]) [Compound 1074985]” was tested, and the “YAP1 (% UTC)” value was 49 % UTC. In the case of “1075657 (kT*kA*kA*dA*dA*dA*dA*d[5mC]*dG*dG*dT*dT*dT*kT*kT*k[5mC]; antisense) [Compound 1075657]”, the “YAP1 (% UTC)” value is reported as 84 % UTC.

Same assay, conditions: Table 24; Yap1 mRNA as percent of untreated control; 3-10-3 cEt gapmers targeting SEQ ID NO.: 1, and 2
With “1074666 (antisense k[5mC]*kA*kT*dA*dT*dA*d[5mC]*d[5mC]*d[5mC]*dA*dA*dT*dT*kT*kT*kG) [Compound 1074666]” the “YAP1 (% UTC)” value was 16 % UTC. With “1076522 (antisense kG*k[5mC]*kA*d[5mC]*dT*dA*dA*dA*dG*dG*dA*dG*dT*k[5mC]*kA*kT) [Compound 1076522]” the “YAP1 (% UTC)” value was 35 % UTC. “1074410 (antisense kT*kA*kG*dA*dG*dG*dA*dT*dT*dA*dA*dA*dG*kT*kA*kT) [Compound 1074410]” was tested, and the “YAP1 (% UTC)” value was 32 % UTC. “1075338 (k[5mC]*k[5mC]*k[5mC]*dA*dA*dA*dA*dA*d[5mC]*dT*dA*dG*d[5mC]*kT*kT*kA; antisense) [Compound 1075338]” was tested, and the “YAP1 (% UTC)” value was 56 % UTC.

Same assay, conditions: Table 25; Yap1 mRNA as percent of untreated control; 3-10-3 cEt gapmers targeting SEQ ID NO.: 1, and 2
With “1075115 (antisense kG*kT*kA*dT*dA*dG*d[5mC]*d[5mC]*dT*dT*dA*dT*dT*k[5mC]*kT*kT) [Compound 1075115]” the “YAP1 (% UTC)” value was 6 % UTC. In the case of “1074859 (antisense kG*kT*kA*dA*d[5mC]*dA*dT*dT*dG*dG*dT*dA*d[5mC]*kT*kA*kT) [Compound 1074859]”, the “YAP1 (% UTC)” value is reported as 16 % UTC. For “1076299 (k[5mC]*kG*kT*dT*dA*dT*dA*dA*dA*dG*dA*d[5mC]*d[5mC]*k[5mC]*kA*kA; antisense) [Compound 1076299]”, the “YAP1 (% UTC)” value was 3 % UTC. With “1074987 (antisense kG*k[5mC]*k[5mC]*dG*d[5mC]*dG*dG*d[5mC]*dT*d[5mC]*d[5mC]*d[5mC]*dG*kA*kG*k[5mC]) [Compound 1074987]” the “YAP1 (% UTC)” value was 94 % UTC.

Same assay, conditions: Table 32; Yap1 mRNA, percent of untreated control; 3-10-3 cEt gapmers targeting SEQ ID NO.: 1, and 2
With “1074962 (antisense kA*kG*kG*d[5mC]*dA*dA*dG*d[5mC]*dA*dG*d[5mC]*dT*dA*kA*kA*kT) [compound 1074962]” the “YAP1 (% UTC)” value was 78 % UTC. With “1075186 (kA*kA*kA*dT*d[5mC]*dG*dA*dT*dT*dA*dT*dT*d[5mC]*kA*kG*kA; antisense) [compound 1075186]” the “YAP1 (% UTC)” value was 73 % UTC. For “1074866 (kA*kA*k[5mC]*dA*dT*dA*dT*dG*dA*dG*d[5mC]*dA*dT*kG*k[5mC]*kT; antisense) [compound 1074866]”, the “YAP1 (% UTC)” value was 30 % UTC.

Same assay, conditions: Table 33; Yap1 mRNA, percent of untreated control; 3-10-3 cEt gapmers targeting SEQ ID NO.: 1, and 2
In the case of “1074387 (k[5mC]*k[5mC]*kA*dG*dG*dA*dA*dT*dG*dG*d[5mC]*dT*dT*k[5mC]*kA*kA; antisense) [compound 1074387]”, the “YAP1 (% UTC)” value is reported as 32 % UTC. “1074355 (antisense kA*kG*kG*dG*dA*d[5mC]*dA*d[5mC]*dT*dG*dT*dA*dG*k[5mC]*kT*kG) [compound 1074355]” was tested, and the “YAP1 (% UTC)” value was 55 % UTC. “1074483 (k[5mC]*kA*k[5mC]*dT*dA*dA*dT*dA*dT*dG*dG*dT*d[5mC]*kA*kT*kT; antisense) [compound 1074483]” was tested, and the “YAP1 (% UTC)” value was 15 % UTC. With “1075507 (kG*kT*kA*d[5mC]*dA*dA*d[5mC]*d[5mC]*dT*dA*dG*dT*dG*kA*kT*kA; antisense) [compound 1075507]” the “YAP1 (% UTC)” value was 82 % UTC.

Same assay, conditions: Yap1 mRNA as percent of untreated control; A-431 cells; 3-10-3 cEt gapmers targeting SEQ ID NO.: 1, and 2; Table 30
With “1075664 (antisense kG*k[5mC]*kT*dA*dA*dA*dT*dA*dG*dG*dT*dG*dG*kT*kT*kA) [compound 1075664]” the “YAP1 (% UTC)” value was 87 % UTC. For “1076496 (kG*kT*kT*dA*dA*dA*dG*dA*d[5mC]*d[5mC]*dA*dA*d[5mC]*kA*k[5mC]*kA; antisense) [compound 1076496]”, the “YAP1 (% UTC)” value was 81 % UTC. In the case of “1075056 (antisense k[5mC]*kT*kT*dT*dA*dT*dT*dA*dT*d[5mC]*dT*d[5mC]*dA*kA*k[5mC]*k[5mC]) [compound 1075056]”, the “YAP1 (% UTC)” value is reported as 21 % UTC.

Same assay, conditions: Yap1 mRNA as percent of untreated control; A-431 cells; 3-10-3 cEt gapmers targeting SEQ ID NO.: 1, and 2; Table 31
For “1074353 (antisense kG*kA*k[5mC]*dA*d[5mC]*dT*dG*dT*dA*dG*d[5mC]*dT*dG*k[5mC]*kT*k[5mC]) [compound 1074353]”, the “YAP1 (% UTC)” value was 17 % UTC. “1074545 (kA*k[5mC]*kT*d[5mC]*d[5mC]*d[5mC]*d[5mC]*dT*dA*dG*dG*d[5mC]*dA*k[5mC]*kT*kA; antisense) [compound 1074545]” was tested, and the “YAP1 (% UTC)” value was 18 % UTC.

Reference: US11214803B2, “Modulators of YAP1 expression” (Ionis Pharmaceuticals, Inc., priority 2019, dated 2022)
